Values quoted from earlier work, collected in patent US20200040275A1, “AVIATION FUEL WITH A RENEWABLE OXYGENATE” (Swift Fuels, LLC, priority 2014, published 2020).

Experiments:
[1] = SDS data from third-party compliance reports

SMILES | OSHA Hazards [1] | water solubility | LD50 (rat, oral) (rat)
Cc1cccc(N)c1 [m-Toluidine] | Toxic. Causes cyanosis. |  | 
CCOC(C)(C)C [ETBE, ethyl tert-butyl ether] | Irritant | 1.2 g/100 g | 
CC(C)c1ccc(N)cc1 (single isomer, unassigned) [Cumidine, 4-isopropylaniline] | Irritant. Causes respiratory |  | 757 mg/kg
